Data published in patent US20220096650A1 (Glaxosmithkline Intellectual Property Development Limited, priority 2019, published 2022).

Legend:
[1] = system: CD4 and CD8 cells in PBMC; assay: IFNγ and IL-4 production by T cells upon anti-CD3/anti-CD28 stimulation in PBMC; type: cell-based, human; conditions: 48 and 72 hours
Description: This study was repeated two times (n=2) with blood from two different donors. 100 μL PBMCs (1×10^6 cells/mL) in RPMI-1640 with 10% FBS were added into anti-CD3 antibody coated wells with or without soluble 0.5 μg/mL anti-CD28 antibody. […] Three technical replicates were included for each assay condition. At the end of the study, cells were transferred, washed, stained and analyzed by flow cytometry as described in section 3.1. For intracellular staining, cells were fixed by cytofix buffer (BD Biosciences, Catalog #554655) at room temperature for 20 minutes and permeablized by perm/wash buffer (BD Biosciences, catalog #554723) at room temperature for 30 minutes before staining with antibodies or isotype controls.
The raw percentage and MFI data for each marker at each concentration of BCMA ADC was compared to the corresponding IgG control in the statistical analysis. To account for the variability of the different blood donors, a linear mixed effect model was used to analyze the data. […]
For data reporting, the average percentage or average MFI value among three technical replicates was generated at each BCMA ADC concentration and the % difference values were calculated as: % difference=(Avg 916−Avg IgG)*100/Avg IgG, where Avg 916 and Avg IgG represent the average values of the BCMA ADC treatment group and the IgG control group, respectively. […]

multiple myeloma = assay: Phase 1 clinical trial in relapsed and refractory multiple myeloma patients; type: in vivo, human
Excerpt: Multiple myeloma (MM) is a disease that affects plasma cells and leads to devastating clinical features. MM is the second most common hematological malignancy and remains an incurable disease. Therefore, novel targeted therapies are in need.

[2] = system: CD4 and CD8 T cells in PBMC; assay: PBMC T cell activation assay (anti-CD3/anti-CD28 stimulation), activation markers by flow cytometry; type: cell-based, human; conditions: 24 and 72 hrs, 30, 3 and 0.3 μg/mL
Excerpt: T cells can be activated through the engagement of the T cell receptor (TCR) and co-stimulatory molecules expressed on the cell surface. […] Furthermore, upon activation, T cells produce cytokines such as IFNγ and IL-4. The effect of BCMA ADC on IFNγ and IL-4 productions in stimulated T cells was also studied. These experiments can provide data on the effect of BCMA ADC on T cells activation and function. In addition, proliferation of human CD4+ and CD8+ T cells upon stimulation in the presence of BCMA ADC was also evaluated. Human blood was obtained from the blood donor procurement program at GlaxoSmithKline. Peripheral blood mononuclear cells (PBMCs) were isolated from human whole blood by Ficoll density gradient centrifugation (GE Healthcare). Anti-human CD3 antibody (eBioscience, catalog #16-0037-85, clone OKT3) diluted with coating buffer (Biolegend, catalog #421701) was coated on 96 well flat-bottom plate overnight.
In this study, BCMA ADC treatment and PBMC activation occurred concurrently and the effects were monitored at 24 and 72 hrs. […] Immunofluorescence analysis was performed on a FACS CANTO II flow cytometer (BD Biosciences) and analyzed with DIVA software (BD Biosciences). Flow cytometry was used to monitor the percentage of CD4 or CD8 cells that express a given marker, and the mean fluorescence intensity (MFI) of this maker in CD4 or CD8 cells. […]

[3] = Hallmarks of immunogenic cell death in vivo and in vitro (Example 7)
CD4+ and CD8+ T cells = assay: T cell proliferation upon anti-CD3/anti-CD28 stimulation (CFSE); type: cell-based, human; conditions: 96 hours; 3 donors
Description: Fresh normal peripheral blood isolated CD4+ or CD8+ T cells were received and counted using a Beckman Coulter ViCell then centrifuged at 330 g for 7 minutes. Cells were then stained with Molecular Probes Cell Trace CFSE (cat #C34554) proliferation dye (5-10 μM) in PBS/0.5% BSA. Cells were incubated for 5 minutes on ice prior to a further incubation for 5 minutes on ice in cold RPMI 1640/10% FBS. Any free dye was removed by two further cell centrifugations at 300 g for 5 minutes. Cells were resuspended in complete media RPMI 1640/10% FBS/IL-2 (2.8 ng/mL). Cells were then seeded (10^5 cells/100 μL volume/well) in a 96 well tissue culture plates pre-coated with anti-CD3 (1 μg/mL) and anti-CD28 (1 μg/mL). […] After the 4 day incubation, cell supernatant was harvested and frozen at minus 80° C. and the cells were collected for flow cytometry staining. Analyzed using a CANTO II flow cytometer with 488 nm excitation and emission filters appropriate for fluorescein (FITC) for Cell Trace CFSE. FIG. 4D) Effect of BCMA ADC on proliferation of CD4+ and CD8+ T cells. CD4+ and CD8+ T cells stimulated with anti-CD3 and anti-CD28 antibodies in the presence or absence of various concentrations of BCMA ADC. After 96 hours cell proliferation was analyzed by flow cytometry. Data represent mean±SD from 3 different donors.

## GSK2857916
[1]
  IFNγ production: no significant effect
  IL-4 production: no significant effect
Multiple myeloma
  overall response rate: 60%
[2]
  effect on anti-CD3/anti-CD28 stimulated CD4 and CD8 T cell activation: minimal effect
[3]
  hallmarks of ICD (cell surface calreticulin and other ER stress response proteins, secretion of HMGB1): induces hallmarks of ICD
CD4+ and CD8+ T cells
  proliferation of CD4+ and CD8+ T cells: does not appear to have direct effects
